Experimental findings from US5559209A, “Regulator regions of G proteins” (The General Hospital Corporation, priority 1993, dated 1996) are described below.

Where no end group is shown, it is not given here.

One assay deals with Go (Homo sapiens, UniProt P09471). In words: GTPγS binding, MIII-induced Go activation. The settings on record: 10 nM Go, 1 μM MIII, 2 min. In kind it is biochemical. As for the experimental part:
GTPγS binding Assay--GTPγS binding to G proteins was assayed at 37° C. in 20 mM Hepes/NaOH buffer (pH 7.4) containing 130 μM MgCl2, 110 μM EDTA and 60 nM [^35 S]GTPγS, as described previously (Okamoto et al., 1990). GTPγS binding to polypeptides was negligible. The total amount of G protein was measured as maximal GTPγS binding at room temperature, as described (Okamoto et al., Cell 67:723-730, 1991a). [^35 S]GTPγS was purchased from DuPont-New England Nuclear. Binding of GTPγS to G proteins obeyed first-order kinetics according to the equation ln[(BT-B)/BT]=-kapp t, where B is the binding at time t and BT is the total binding observable at an infinite time. Thus, the apparent first-order rate constant for GTPγS binding (kapp), which is equal to the slope of the tangent to the GTPγS binding curve at time 0 and represents the actual GTPγS binding rate, was calculated from this equation.
The MIII peptide is a Gi /Go -activator region in the third intracellular loop of the G-coupled receptor termed M4 AChR (Okamoto et al., J. Biol. Chem. 267:8342-8346, 1992). This peptide has the sequence RNQVRKKRQMAARERKVTR (SEQ ID NO: 30). In the experiments illustrated in FIG. 1D, 10 nM Go (.quadrature.) or Gi2 (.diamond-solid.) was incubated with 1 μM MIII for 2 or 5 min, respectively, and GTPγS binding was measured in the same manner as in FIG. 1A. […]

For a further assay, the target named is T1, mAChR-Gi2 coupling (Bos taurus, UniProt A7MBH9).
T1 construct: trimeric Gi2 purified from bovine spleen to homogeneity; from tissue; host or cells: bovine spleen (Gi2); porcine brain (mAChR)
In words: GTPγS binding rate in mAChR-Gi2 reconstituted phospholipid vesicles. Format: biochemical, porcine mAChR, bovine Gi2. The note with it: 30 μM ACGi2, 10 mM acetylcholine; read-out: inhibition of acetylcholine-induced Gi2 activation. As for the experimental part: (§1) Materials and Methods The in vitro assays described below utilize the couplone portion of each of a number of G-coupled receptors, instead of an intact receptor molecule, as a means for activating the corresponding anticouplone or intact G-protein. […]
GTPγS binding Assay--GTPγS binding to G proteins was assayed at 37° C. in 20 mM Hepes/NaOH buffer (pH 7.4) containing 130 μM MgCl2, 110 μM EDTA and 60 nM [^35 S]GTPγS, as described previously (Okamoto et al., 1990). […] The total amount of G protein was measured as maximal GTPγS binding at room temperature, as described (Okamoto et al., Cell 67:723-730, 1991a). […] Thus, the apparent first-order rate constant for GTPγS binding (kapp), which is equal to the slope of the tangent to the GTPγS binding curve at time 0 and represents the actual GTPγS binding rate, was calculated from this equation. […]

Another assay deals with T2, Gi2 (Bos taurus, UniProt A7MBH9).
T2 construct: trimeric Gi2 (i.e., Gi2 αβγ) purified from bovine brain to near homogeneity; from tissue; host or cells: bovine brain
In words: GTPγS binding, MIII-induced Gi2 activation. Format: biochemical, bovine. The settings on record: 10 nM Gi2, 1 μM MIII, 5 min; read-out: IC50, attenuation of MIII-induced Gi2 activation. As for the experimental part: as §1
(§2) GTPγS binding Assay--GTPγS binding to G proteins was assayed at 37° C. in 20 mM Hepes/NaOH buffer (pH 7.4) containing 130 μM MgCl2, 110 μM EDTA and 60 nM [^35 S]GTPγS, as described previously (Okamoto et al., 1990). […] The total amount of G protein was measured as maximal GTPγS binding at room temperature, as described (Okamoto et al., Cell 67:723-730, 1991a). […] Thus, the apparent first-order rate constant for GTPγS binding (kapp), which is equal to the slope of the tangent to the GTPγS binding curve at time 0 and represents the actual GTPγS binding rate, was calculated from this equation.
The MIII peptide is a Gi /Go -activator region in the third intracellular loop of the G-coupled receptor termed M4 AChR (Okamoto et al., J. Biol. Chem. 267:8342-8346, 1992). […] In the experiments illustrated in FIG. 1D, 10 nM Go (.quadrature.) or Gi2 (.diamond-solid.) was incubated with 1 μM MIII for 2 or 5 min, respectively, and GTPγS binding was measured in the same manner as in FIG. 1A. […]

The target of another assay is T3, Gi3 (Bos taurus, UniProt Q3ZCA7).
T3 construct: was purified from bovine spleen and used in combination with 1.5-fold concentrated Gβγ; from tissue; host or cells: bovine spleen (Gi3 α); bovine brain (Gβγ)
Briefly: GTPγS binding, peptide 14-induced Gi3 activation. In kind it is biochemical, bovine. The settings on record: 10 nM Gi3, 30 μM peptide 14, 4 min. As for the experimental part:
as §1, §2
Peptide 14 is capable of activating Gi1 and Gi3 as well as Gi2 (Okamoto et al., 1990). The effect of ACGi2 on peptide 14-induced activation of these Gi proteins was examined as follows: 10 nM Gi1 (.quadrature.) or Gi3 (.diamond-solid.) was incubated with 30 μM peptide 14 in the presence of various concentrations of ACGi2 for 4 min, and GTPβS binding was measured. […]

Another assay deals with T4, Gs (Bos taurus, UniProt P04896).
T4 construct: Trimeric Gs and Gβγ purified from bovine brain to near homogeneity; from tissue; host or cells: bovine brain
Briefly: GTPγS binding, βIII-2-induced Gs activation. Format: biochemical, bovine. The settings on record: 10 nM Gs, 1 μM βIII-2, 10 min. As for the experimental part: as §1, §2
GTPβS binding was measured following incubation of solubilized Gs at 10 nM with 1 μM βIII-2 (RRSSKFCLKEHKALK; SEQ ID NO: 29) in the presence of ACGi2 for 10 min. […]

T2 sequence (A7MBH9 2-355 limits assumed): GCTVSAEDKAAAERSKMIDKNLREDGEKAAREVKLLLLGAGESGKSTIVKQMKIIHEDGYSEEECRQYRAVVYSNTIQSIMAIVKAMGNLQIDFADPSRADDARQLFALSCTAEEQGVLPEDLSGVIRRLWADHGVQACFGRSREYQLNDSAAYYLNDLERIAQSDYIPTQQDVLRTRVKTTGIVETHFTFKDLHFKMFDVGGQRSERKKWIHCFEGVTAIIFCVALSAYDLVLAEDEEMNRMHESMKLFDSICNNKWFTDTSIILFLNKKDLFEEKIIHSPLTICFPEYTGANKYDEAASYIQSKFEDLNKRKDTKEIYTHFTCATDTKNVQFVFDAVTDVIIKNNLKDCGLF
T2 sequence (P62871 2-340 partner limits assumed): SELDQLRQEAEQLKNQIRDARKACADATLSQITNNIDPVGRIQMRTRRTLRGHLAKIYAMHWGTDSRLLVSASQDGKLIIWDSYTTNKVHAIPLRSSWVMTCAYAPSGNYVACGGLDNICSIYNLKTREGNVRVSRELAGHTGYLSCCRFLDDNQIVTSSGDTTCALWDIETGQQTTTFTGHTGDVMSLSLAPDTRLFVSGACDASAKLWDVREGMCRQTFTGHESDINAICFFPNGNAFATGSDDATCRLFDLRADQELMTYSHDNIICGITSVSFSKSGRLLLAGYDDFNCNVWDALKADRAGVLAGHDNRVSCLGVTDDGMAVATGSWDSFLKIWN
T2 sequence (P63212 2-68 partner limits assumed): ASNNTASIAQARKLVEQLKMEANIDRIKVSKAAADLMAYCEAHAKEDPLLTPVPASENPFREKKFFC
T1 sequence (A7MBH9 2-355 limits assumed): as the sequence (A7MBH9 2-355 limits assumed) above
T1 sequence (P62871 2-340 partner limits assumed): as the sequence (P62871 2-340 partner limits assumed) above
T1 sequence (P63212 2-68 partner limits assumed): as the sequence (P63212 2-68 partner limits assumed) above
T4 sequence (P04896 2-394 limits assumed): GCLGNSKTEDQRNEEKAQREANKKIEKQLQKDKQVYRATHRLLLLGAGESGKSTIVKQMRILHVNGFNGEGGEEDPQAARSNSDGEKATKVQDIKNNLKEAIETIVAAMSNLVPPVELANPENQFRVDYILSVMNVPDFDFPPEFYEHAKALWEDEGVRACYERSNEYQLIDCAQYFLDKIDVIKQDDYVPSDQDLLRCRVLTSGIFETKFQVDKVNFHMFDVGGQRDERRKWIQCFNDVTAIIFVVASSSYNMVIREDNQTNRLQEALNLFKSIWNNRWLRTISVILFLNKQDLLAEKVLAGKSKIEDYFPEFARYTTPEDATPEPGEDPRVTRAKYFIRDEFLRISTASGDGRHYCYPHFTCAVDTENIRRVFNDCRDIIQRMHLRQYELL
T4 sequence (P62871 2-340 partner limits assumed): as the sequence (P62871 2-340 partner limits assumed) above
T4 sequence (P63212 2-68 partner limits assumed): as the sequence (P63212 2-68 partner limits assumed) above
Go, sequence (P09471 2-354 limits assumed): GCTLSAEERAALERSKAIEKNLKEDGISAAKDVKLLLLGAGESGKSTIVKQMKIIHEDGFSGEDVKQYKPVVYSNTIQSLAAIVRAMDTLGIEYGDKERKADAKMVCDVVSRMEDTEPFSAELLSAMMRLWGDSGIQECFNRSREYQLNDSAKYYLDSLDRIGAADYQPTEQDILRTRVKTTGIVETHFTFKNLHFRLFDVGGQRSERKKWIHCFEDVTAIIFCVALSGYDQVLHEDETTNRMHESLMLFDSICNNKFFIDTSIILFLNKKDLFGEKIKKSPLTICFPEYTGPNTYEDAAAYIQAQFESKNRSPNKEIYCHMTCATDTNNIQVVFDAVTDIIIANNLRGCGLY
Go, sequence (P62873 2-340 partner limits assumed): as the sequence (P62871 2-340 partner limits assumed) above
Go, sequence (P59768 2-68 partner limits assumed): as the sequence (P63212 2-68 partner limits assumed) above
T3 sequence (Q3ZCA7 2-354 limits assumed): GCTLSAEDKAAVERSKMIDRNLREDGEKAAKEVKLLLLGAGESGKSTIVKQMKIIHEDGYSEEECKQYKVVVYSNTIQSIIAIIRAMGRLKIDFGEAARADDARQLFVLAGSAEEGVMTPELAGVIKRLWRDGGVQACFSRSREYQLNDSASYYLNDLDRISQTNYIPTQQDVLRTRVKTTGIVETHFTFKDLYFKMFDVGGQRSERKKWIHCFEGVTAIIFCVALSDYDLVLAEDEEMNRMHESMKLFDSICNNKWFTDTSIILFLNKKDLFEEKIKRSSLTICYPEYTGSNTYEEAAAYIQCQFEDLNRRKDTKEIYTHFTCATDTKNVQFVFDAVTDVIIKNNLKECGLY
T3 sequence (P62871 2-340 partner limits assumed): as the sequence (P62871 2-340 partner limits assumed) above
T3 sequence (P63212 2-68 partner limits assumed): as the sequence (P63212 2-68 partner limits assumed) above

“DAVTDVIIKNNLKDC [ACGi2, DAVTDVIIKNNLKDC]”: the results for the IC50 on Go and on Gi2 were approximately 30 µM and 10 µM, respectively. In addition, the inhibition at 30 µM on mAChR-Gi2 coupling was approximately 75%. At Gi3, the “maximal inhibition of peptide 14-induced Gi3 activation” value is listed as “≈ 60%”. Moreover, the “maximal inhibition of βIII-2-stimulated Gs” value at Gs is recorded as 40%.
